{"source": "ChEMBL document CHEMBL2396615", "about": "(Bioorg Med Chem Lett, 2013)", "data": [{"target": "T1, Bifunctional epoxide hydrolase 2 (Homo sapiens, UniProt P34913)", "T1 sequence (P34913 whole entry)": "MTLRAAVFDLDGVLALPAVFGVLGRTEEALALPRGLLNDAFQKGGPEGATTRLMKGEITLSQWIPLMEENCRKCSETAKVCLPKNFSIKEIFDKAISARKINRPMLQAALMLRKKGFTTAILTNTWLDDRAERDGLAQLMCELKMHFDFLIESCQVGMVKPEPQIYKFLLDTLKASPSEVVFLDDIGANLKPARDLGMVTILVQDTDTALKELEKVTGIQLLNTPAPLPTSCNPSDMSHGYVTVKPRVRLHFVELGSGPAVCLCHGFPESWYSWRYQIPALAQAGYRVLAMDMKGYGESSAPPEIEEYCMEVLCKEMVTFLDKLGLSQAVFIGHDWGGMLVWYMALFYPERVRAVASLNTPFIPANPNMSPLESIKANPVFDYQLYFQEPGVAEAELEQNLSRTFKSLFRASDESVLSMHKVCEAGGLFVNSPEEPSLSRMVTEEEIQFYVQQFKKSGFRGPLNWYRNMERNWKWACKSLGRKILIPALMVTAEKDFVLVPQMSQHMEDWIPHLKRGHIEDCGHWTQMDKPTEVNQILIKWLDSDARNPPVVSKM", "experiment": "Competitive inhibition of human recombinant soluble epoxide hydrolase using [3H]-tDPPO as substrate", "units": {"Ki": "nM"}, "values": [{"smiles": "C[C@]12CC[C@@H]3c4ccc(O)cc4C[C@@H](CCCCCCCCC[S+]([O-])CCCC(F)(F)C(F)(F)F)[C@H]3[C@@H]1CC[C@@H]2O", "note": "(stereo partly specified) [FULVESTRANT]", "Ki": 26}]}, {"target": "T1, Bifunctional epoxide hydrolase 2", "experiment": "Inhibition of human recombinant soluble epoxide hydrolase using (cyano(6-methoxy-naphthelen-2-yl)methyl trans-[(3-phenyl-oxiran-2-yl)methyl] carbonate) as substrate preincubated for 5 mins prior to substrate addition by fluorescence assay", "units": {"IC50": "nM"}, "values": [{"smiles": "[O-][S+](Cc1ccccc1)Cc1ccccc1", "IC50": 70000}, {"smiles": "CCCCCCCCC(=O)CCCCCCCC", "IC50": "> 100000"}, {"smiles": "CCCCCCCCS(=O)(=O)CCCCCCCC", "IC50": "> 100000"}, {"smiles": "CCCCCCCC[S+]([O-])Cc1ccccc1", "note": "(stereo unspecified)", "IC50": 6800}, {"smiles": "CCCCCCCC[S+]([O-])CCCCCCCC", "IC50": 1350}, {"smiles": "O=C(Cc1ccccc1)Nc1ccccc1", "IC50": 11000}, {"smiles": "O=C(Nc1ccccc1)Nc1ccccc1", "IC50": 400}, {"smiles": "CCCCCCCCSCCCCCCCC", "note": "[DIOCTYLSULFANE]", "IC50": "> 100000"}, {"smiles": "O=c1c2ccccc2[se]n1-c1ccccc1", "note": "[EBSELEN]", "IC50": 2200}, {"smiles": "C[C@]12CC[C@@H]3c4ccc(O)cc4C[C@@H](CCCCCCCCC[S+]([O-])CCCC(F)(F)C(F)(F)F)[C@H]3[C@@H]1CC[C@@H]2O", "note": "(stereo partly specified) [FULVESTRANT]", "IC50": 6}]}]}
